One assay deals with T1, human IL-23R (Homo sapiens, UniProt Q5VWK5).
T1 construct: Nanoluc luciferase (Nluc); secretion signal encoded by the plasmid (not specified); expressed in transfected cells; crude membranes used in the assay
T1 sequence (Q5VWK5 22-629): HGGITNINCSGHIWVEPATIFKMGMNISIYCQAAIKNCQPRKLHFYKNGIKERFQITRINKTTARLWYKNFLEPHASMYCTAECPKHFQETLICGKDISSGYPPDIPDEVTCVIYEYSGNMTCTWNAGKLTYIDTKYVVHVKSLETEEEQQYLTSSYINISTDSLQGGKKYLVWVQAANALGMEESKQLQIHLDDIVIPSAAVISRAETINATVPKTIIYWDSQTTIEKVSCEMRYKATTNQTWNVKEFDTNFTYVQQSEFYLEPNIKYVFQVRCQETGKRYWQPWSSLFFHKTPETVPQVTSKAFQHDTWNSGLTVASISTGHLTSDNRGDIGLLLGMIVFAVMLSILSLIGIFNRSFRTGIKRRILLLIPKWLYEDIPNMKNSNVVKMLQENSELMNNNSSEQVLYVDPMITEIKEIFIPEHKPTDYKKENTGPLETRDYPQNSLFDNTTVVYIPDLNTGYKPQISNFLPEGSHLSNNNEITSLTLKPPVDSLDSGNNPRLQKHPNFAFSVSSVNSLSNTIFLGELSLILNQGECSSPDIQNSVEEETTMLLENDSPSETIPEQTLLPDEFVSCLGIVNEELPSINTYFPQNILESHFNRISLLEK
As to the kind of experiment: Binding assay: displacement of fluorophore (TAMRA)-labelled reference compound from human IL-23R (BRET, Nluc-IL23R fusion protein membranes). The settings on record: for Emax: read-out: % displacement (hIL-23R binding). Background: In BRET a luciferase serves as donor, and the signal depends on an acceptor being close.

Assay [1] has as its system IL-23 mediated STAT3 signalling (DB cells). As to the kind of experiment: Functional inhibition of IL-23 mediated STAT3 signalling (phospho-STAT3 Tyr705) in DB cells. Type of assay: cell-based, human. The note with it: for hIL-23 (pSTAT3) antagonist % inhibition: Table 3-2, maximal inhibitory response, EC80 of hIL-23. The source says: Upon binding of IL-23, the IL-23R forms a heterodimer signalling complex together with IL-12R β1, which through the JAK2/STAT3 pathway promotes phosphorylation of STAT3 to form phospho-STAT3.
For compounds tested in this assay, the response was normalized relative to control values to calculate the IC50 and maximal inhibitory response from a concentration response curve of the compound in presence of a fixed concentration of human IL-23.
The assay procedure was as follows. […] Following preincubation of the DB cells with inhibitor for 15 min in a cell incubator (37° C., 5% CO2), 20 μL of the prepared 3× the EC80 of hIL-23 solution was added to each well and incubated for 90 min in a cell incubator (37° C., 5% CO2). For some wells buffer only or IL-23 only corresponding to the EC80 was added to obtain readouts needed for normalization. To terminate the assay, the plate was spun at 1000 G for 5 min to pellet cells, the supernatant removed using an 8-channel manual pipette, and then added 50 μL/well Complete Lysis Buffer from the MSD STAT3 kit (Cat #K150SVD, Mesoscale) to the cell pellet. To completely lyse cells to release phospho-STAT3 for detection, the plate was shaken for 10 min at room temperature (500 rpm) sealed with aluminium foil and placed at −80° C. for a minimum of 15 min. Detection of the phospho-STAT3 level in the cell lysate from the individual wells was determined using the MSD STAT3 kit (Cat #K150SVD, Mesoscale) and read on a Meso QuickPlex SQ 120 plate reader (Mesoscale).
For data analysis raw data counts from the Meso QuickPlex SQ 120 plate reader were normalized relative to the response by the EC80 of hIL-23 alone (no compound added) and the buffer level.

Where [2] appears, read: Table 3-2, EC80 of hIL-23, read-out: hIL-23 (pSTAT3) antagonist IC50.

Read-outs that look alike come from different tables or passages of the source. *1 amine or outer side, *2 acyl side, *3 side chain or, on linkers, in order; H or OH if unused. Where a SMILES comes first, the peptide text is derived from it. Bridges are numbered along the chain shown (N, C = ends). [ ]: non-standard residue; d: D form. 2Nal = N[C@@H](Cc1ccc2ccccc2c1)C(=O)O; AEF = NCCOc1ccc(C[C@H](N)C(=O)O)cc1; X1 = O=C(Cc1ccc(CN[*:1])cc1)[*:2]; 3Pal = N[C@@H](Cc1cccnc1)C(=O)O; αMeL = CC(C)C[C@](C)(N)C(=O)O; CH2COCH2 = O=C(C[*:1])C[*:2]; 3Amb = NCc1cccc(C(=O)O)c1; Dab = NCC[C@H](N)C(=O)O

A word on the IC50: it is the point on the concentration scale where inhibition reaches its midpoint. Compound `CNC(=O)[C@H](Cc1cccnc1)NC(=O)[C@H](CCN)NC(=O)[C@@H]1CCC(=O)NCc2ccc(cc2)CC(=O)N[C@@H](CO)C(=O)N[C@H]2CCC(=O)NCC[C@H](NC(=O)[C@H](C)NC(=O)[C@H](Cc3c[nH]c4ccccc34)NC2=O)C(=O)N[C@@H](Cc2ccc(OCCN)cc2)C(=O)N[C@@H](Cc2ccc3ccccc3c2)C(=O)N[C@@](C)(CC(C)C)C(=O)N1` [Compound 22, [4-Aminomethyl-phenylacetyl](1c)*SE(2c)WA[Dab](2c)[Y(2-aminoethoxy)][2-Nal][2-Me-Leu]E(1c)[Dab][3-(3-Pyridyl)-Ala]-[NHMe]] ([X1]SEWA[Dab][AEF][2Nal][αMeL]E[Dab][3Pal]-NHMe; lactam 3-6, N-10) displayed an IC50 on human IL-23R of 0.035 nM. Moreover, in assay [1], the “hIL-23 (pSTAT3) antagonist % inhibition” value is given as 101%.

Regarding `CC(C)C[C@@H]1NC(=O)[C@H](Cc2ccc3ccccc3c2)NC(=O)[C@H](Cc2c[nH]c3ccccc23)NC(=O)[C@@H]2CSCC(=O)CSC[C@H](NC(=O)[C@H](CO)NC(=O)c3cccc(c3)CNC(=O)CC[C@@H](C(=O)N[C@@H](CCCNC(=N)N)C(N)=O)NC1=O)C(=O)N[C@@H](Cc1c[nH]c3ccccc13)C(=O)N[C@@H](CCC(N)=O)C(=O)N2` [Ref 37, [(3-Aminomethyl)benzoyl](1c)*SC(2a)WQC(2a)W[2-Nal]LE(1c)R-[NH2], reference compound] ([3Amb]SCWQCW[2Nal]LER-NH2; linker 3-6 via CH2COCH2; lactam N-10), the Emax at human IL-23R amounted to 103%. Further, in assay [1] (setting [2]), the 50% inhibitory concentration (IC50) came out at 45 nM. Further, in assay [1], the “hIL-23 (pSTAT3) antagonist % inhibition” value is 89%.

With `CNC(=O)[C@H](Cc1cccnc1)NC(=O)[C@H](CCN)NC(=O)[C@@H]1CCC(=O)NCc2ccc(cc2)CC(=O)N[C@@H](CO)C(=O)N[C@H]2CCC(=O)NCC[C@H](NC(=O)[C@H](Cc3ccccc3)NC(=O)[C@H](Cc3c[nH]c4ccccc34)NC2=O)C(=O)N[C@@H](Cc2ccc(OCCN)cc2)C(=O)N[C@@H](Cc2ccc3ccccc3c2)C(=O)N[C@@](C)(CC(C)C)C(=O)N1` [Compound 23, [4-Aminomethyl-phenylacetyl](1c)*SE(2c)WF[Dab](2c)[Y(2-aminoethoxy)][2-Nal][2-Me-Leu]E(1c)[Dab][3-(3-Pyridyl)-Ala]-[NHMe]] ([X1]SEWF[Dab][AEF][2Nal][αMeL]E[Dab][3Pal]-NHMe; lactam 3-6, N-10), at human IL-23R, the concentration for half-maximal inhibition (IC50) is 0.12 nM and the Emax came out at 97%. Also, the half-maximal inhibitory concentration (IC50) in assay [1] (setting [2]) was 5.2 nM. Also, in assay [1], the “hIL-23 (pSTAT3) antagonist % inhibition” value came out at 99%.

In the case of `CC(C)C[C@]1(C)NC(=O)[C@H](Cc2ccc3ccccc3c2)NC(=O)[C@H](Cc2ccc(OCCN)cc2)NC(=O)[C@@H]2CCNC(=O)CC[C@H](NC(=O)[C@H](CO)NC(=O)Cc3ccc(cc3)CNC(=O)CC[C@@H](C(=O)NCC[C@H](N)C(=O)N[C@@](C)(Cc3cccnc3)C(N)=O)NC1=O)C(=O)N[C@@H](Cc1c[nH]c3ccccc13)C(=O)N[C@@H](CCC(N)=O)C(=O)N2` [Compound 15, [4-Aminomethyl-phenylacetyl](1c)*SE(2c)WQ[Dab](2c)[Y(2-aminoethoxy)][2-Nal][2-Me-Leu]E(1c)[Iso-Dab][2-Me-3-(3-Pyridyl)-Ala]-[NH2]], the Emax at human IL-23R is 96%. Also, the IC50 in assay [1] (setting [2]) amounted to 12 nM. Besides, the “hIL-23 (pSTAT3) antagonist % inhibition” value in assay [1] is given as 97%.

In the case of `CC(C)C[C@]1(C)NC(=O)[C@H](Cc2ccc3ccccc3c2)NC(=O)[C@H](Cc2ccc(OCCN)cc2)NC(=O)[C@@H]2CSCC(=O)CSC[C@H](NC(=O)[C@H](CO)NC(=O)Cc3ccc(cc3)CNC(=O)CC[C@@H](C(=O)N[C@@H](CO)C(N)=O)NC1=O)C(=O)N[C@@H](Cc1c[nH]c3ccccc13)C(=O)N[C@@H](CCC(N)=O)C(=O)N2` [Ref 81, [4-Aminomethyl-phenylacetyl](1c)*SC(2a)WQC(2a)[Y(2-aminoethoxy)][2-Nal][2-Me-Leu]E(1c)S-[NH2], reference compound], the Emax at human IL-23R amounted to 101%. The IC50 in assay [1] (setting [2]) is 21 nM. Besides, the “hIL-23 (pSTAT3) antagonist % inhibition” value in assay [1] was 95%.

Take `CC(C)C[C@]1(C)NC(=O)[C@H](Cc2ccc3ccccc3c2)NC(=O)[C@H](Cc2ccc(OCCN)cc2)NC(=O)[C@@H]2CSCC(=O)CSC[C@H](NC(=O)[C@H](CO)NC(=O)c3cccc(c3)CNC(=O)CC[C@@H](C(=O)N[C@H](CCCNC(=N)N)C(N)=O)NC1=O)C(=O)N[C@@H](Cc1c[nH]c3ccccc13)C(=O)N[C@@H](CCC(N)=O)C(=O)N2` [Ref 41, [(3-Aminomethyl)benzoyl](1c)*SC(2a)WQC(2a)[Y(2-aminoethoxy)][2-Nal][2-Me-Leu]E(1c)[{d}R]-[NH2], reference compound] ([3Amb]SCWQC[AEF][2Nal][αMeL]E[dR]-NH2; linker 3-6 via CH2COCH2; lactam N-10): the Emax on human IL-23R worked out at 110%. In assay [1] (setting [2]), the half-inhibitory concentration (IC50) was found to be 29 nM. The “hIL-23 (pSTAT3) antagonist % inhibition” value in assay [1] is recorded as 99%.

Regarding `CNC(=O)[C@H](Cc1cccnc1)NC(=O)[C@H](CCN)NC(=O)[C@@H]1CCC(=O)NCc2ccc(cc2)CC(=O)N[C@@H](C)C(=O)N[C@H]2CCC(=O)NCC[C@H](NC(=O)[C@H](CCC(N)=O)NC(=O)[C@H](Cc3c[nH]c4ccccc34)NC2=O)C(=O)N[C@@H](Cc2ccc(N3CCOCC3)cc2)C(=O)N[C@@H](Cc2ccc3ccccc3c2)C(=O)NC(C)(C)C(=O)N1` [Compound 51, [4-aminomethyl-phenylacetyl](1c)*AE(2c)WQ[Dab](2c)[F(4-morpholine)][2Nal][Aib]E(1c)[Dab][3-(3-Pyridyl)-alanyl]-[NHMe]], on human IL-23R, the IC50 came to 0.073 nM and the Emax was 105%. Besides, in assay [1] (setting [2]), the IC50 is 0.38 nM. Moreover, the “hIL-23 (pSTAT3) antagonist % inhibition” value in assay [1] is reported as 96%.

As to `CC(C)C[C@]1(C)NC(=O)[C@H](Cc2ccc3ccccc3c2)NC(=O)[C@H](Cc2ccc(OCCN)cc2)NC(=O)[C@@H]2CCNC(=O)CC[C@H](NC(=O)[C@H](CO)NC(=O)Cc3ccc(cc3)CNC(=O)CC[C@@H](C(=O)N[C@@H](CCN)C(=O)N[C@@H](Cc3cccnc3)C(=O)N[C@H](Cc3c[nH]cn3)C(N)=O)NC1=O)C(=O)N[C@@H](Cc1c[nH]c3ccccc13)C(=O)N[C@@H](CCC(N)=O)C(=O)N2` [Compound 10, [4-Aminomethyl-phenylacetyl](1c)*SE(2c)WQ[Dab](2c)[Y(2-aminoethoxy)][2-Nal][2-Me-Leu]E(1c)[Dab][3-(3-Pyridyl)-Ala][{d}H]-[NH2]] ([X1]SEWQ[Dab][AEF][2Nal][αMeL]E[Dab][3Pal][dH]-NH2; lactam 3-6, N-10), the Emax on human IL-23R came to 91%. Besides, the half-inhibitory concentration (IC50) amounted to 0.038 nM in assay [1] (EC80 of hIL-23, read-out: IC50 (pSTAT3)) and 0.038 nM in assay [1] (setting [2]). Moreover, the “hIL-23 (pSTAT3) antagonist % inhibition” value in assay [1] turned out to be 99%.

For the compound `CC(=O)N[C@H]1CCCCNC(=O)CC[C@@H](C(=O)N[C@@H](CCN)C(=O)N[C@@H](Cc2cccnc2)C(N)=O)NC(=O)[C@](C)(CC(C)C)NC(=O)[C@H](Cc2ccc3ccccc3c2)NC(=O)[C@H](Cc2ccc(OCCN)cc2)NC(=O)[C@@H]2CSCC(=O)CSC[C@H](NC(=O)[C@H]([C@@H](C)O)NC1=O)C(=O)N[C@@H](Cc1c[nH]c3ccccc13)C(=O)N[C@@H](CCC(N)=O)C(=O)N2` [Ref 155, [Ac]-K(1c)TC(2a)WQC(2a)[Y(2-aminoethoxy)][2-Nal][2-Me-Leu]E(1c)[Dab][3-(3-Pyridyl)-Ala]-[NH2], reference compound] (Ac-KTCWQC[AEF][2Nal][αMeL]E[Dab][3Pal]-NH2; lactam 1-10; linker 3-6 via CH2COCH2), the Emax on human IL-23R came out at 97%. In addition, the “hIL-23 (pSTAT3) antagonist % inhibition” value in assay [1] was determined as 100%.

For `CC(C)C[C@]1(C)NC(=O)[C@H](Cc2c[nH]c3ccccc23)NC(=O)[C@H](Cc2c[nH]c3ccccc23)NC(=O)[C@@H]2CSCC(=O)CSC[C@H](NC(=O)[C@H]([C@@H](C)O)NC(=O)[C@@H](NC(=O)CN)CSCC(=O)CSC[C@@H](C(=O)N[C@@H](CO)C(N)=O)NC1=O)C(=O)N[C@@H](Cc1c[nH]c3ccccc13)C(=O)N[C@@H](CCC(=O)O)C(=O)N2` (single isomer, unassigned) [I5 (isomer 3), H-GC(1a)TC(2a)WEC(2a)WW[2-Me-Leu]C(1a)S-[NH2], reference compound], at human IL-23R, the Emax is 102%. Besides, the “hIL-23 (pSTAT3) antagonist % inhibition” value in assay [1] amounted to 91%.

These data come from patent US20260327264A1, “PEPTIDE INHIBITORS OF INTERLEUKIN-23 RECEPTOR” (Zealand Pharma A/S, priority 2023, published 2026).
